From patent US20240158412A1 (Faxian Therapeutics, LLC, priority 2021, published 2024)

What follows are molecules tested against USP7 (Homo sapiens, UniProt Q93009) (assay: biochemical).
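Further: fluorescence intensity readout of USP7 enzymatic activity, reaction incubated 90 min at room temperature.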

Chain of USP7 (Q93009 whole entry): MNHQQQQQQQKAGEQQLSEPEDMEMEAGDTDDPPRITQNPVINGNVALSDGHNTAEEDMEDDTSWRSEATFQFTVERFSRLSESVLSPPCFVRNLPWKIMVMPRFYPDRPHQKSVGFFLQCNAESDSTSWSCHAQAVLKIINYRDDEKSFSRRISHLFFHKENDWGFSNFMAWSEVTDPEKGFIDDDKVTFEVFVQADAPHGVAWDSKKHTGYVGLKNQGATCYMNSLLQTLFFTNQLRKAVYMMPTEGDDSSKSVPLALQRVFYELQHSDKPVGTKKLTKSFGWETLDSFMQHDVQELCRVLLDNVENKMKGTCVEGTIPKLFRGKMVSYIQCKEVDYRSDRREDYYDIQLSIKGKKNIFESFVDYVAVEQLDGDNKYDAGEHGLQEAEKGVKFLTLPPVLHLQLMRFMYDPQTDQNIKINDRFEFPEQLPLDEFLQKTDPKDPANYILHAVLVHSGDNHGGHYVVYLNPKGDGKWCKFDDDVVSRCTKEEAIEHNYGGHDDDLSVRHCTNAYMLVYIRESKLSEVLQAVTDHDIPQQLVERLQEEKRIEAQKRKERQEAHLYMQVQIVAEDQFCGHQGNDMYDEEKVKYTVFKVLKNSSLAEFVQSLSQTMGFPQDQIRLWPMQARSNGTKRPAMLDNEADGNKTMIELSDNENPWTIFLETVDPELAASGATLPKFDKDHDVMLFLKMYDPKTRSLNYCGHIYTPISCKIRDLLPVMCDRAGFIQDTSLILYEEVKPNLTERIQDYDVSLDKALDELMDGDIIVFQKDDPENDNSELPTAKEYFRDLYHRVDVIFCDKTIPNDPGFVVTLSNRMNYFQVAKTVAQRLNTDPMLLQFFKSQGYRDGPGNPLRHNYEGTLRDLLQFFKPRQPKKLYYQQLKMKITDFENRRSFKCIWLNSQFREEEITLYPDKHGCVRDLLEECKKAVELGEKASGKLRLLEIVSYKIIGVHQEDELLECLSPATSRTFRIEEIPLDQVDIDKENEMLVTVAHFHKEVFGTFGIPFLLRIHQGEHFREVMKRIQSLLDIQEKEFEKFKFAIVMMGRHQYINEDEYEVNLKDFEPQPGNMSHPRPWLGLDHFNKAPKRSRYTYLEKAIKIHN

First: O=C1CCC(=O)N1Cc1cc2nccc(-c3cc(Cl)cc4c3N([C@@H]3CNC[C@H]3F)CCC4)c2s1 (single isomer, unassigned) [Example 96b]
Second: CO[C@H]1CNC[C@@H]1N1CCCc2cc(Cl)cc(-c3ccnc4cc(CN5C(=O)CCC5=O)sc34)c21 (single isomer, unassigned) [Example 97a]
The IC50 of the first is lower: 10 to 100 nM for the first, 101 to 1000 nM for the second. The first is the more potent here.

`CO[C@@H]1CNC[C@H]1N1CCCc2cc(Cl)cc(-c3ccnc4cc(CN5C(=O)CCC5=O)sc34)c21` (single isomer, unassigned) [Example 97b] and `O=C1CCC(=O)N1Cc1cc2nccc(-c3cc(Cl)cc4c3N(C3CNC5(CC(F)C5)C3)CCC4)c2s1` (single isomer, unassigned) [Example 177a] cannot be ordered by IC50: < 10 nM for the first, < 10 nM for the second.

First: Cn1cc(Cc2cc3nccc(-c4cc(Cl)cc5c4N([C@@H]4CCNC4)CCC5)c3s2)nn1 (single isomer, unassigned) [Example 98]
Second: Cn1cc(Cc2cc3nccc(-c4cc(Cl)cc5c4N([C@H]4CCNC4)CCC5)c3s2)nn1 (single isomer, unassigned) [Example 99]
The IC50 of the first is higher: 101 to 1000 nM for the first, 10 to 100 nM for the second. The second is the more potent here.

Compared with `N#Cc1cc2c(c(-c3ccnc4cc(Cn5c(=O)ccn(CC(F)(F)F)c5=O)sc34)c1)N([C@H]1CCN([C@@H]3CC[C@H]3O)C1)CCC2` (single isomer, unassigned) [Example 107a], `N#Cc1cc2c(c(-c3ccnc4cc(Cn5c(=O)ccn(CC(F)(F)F)c5=O)sc34)c1)N([C@H]1CCN([C@H]3CC[C@@H]3O)C1)CCC2` (single isomer, unassigned) [Example 107b] is higher in IC50: < 10 nM for the first, 10 to 100 nM for the second.

First: O=C1CCC(=O)N1Cc1sc2c(-c3cc(Cl)cc4c3N(C3CCNC3)CCC4)ccnc2c1F (single isomer, unassigned) [Example 108a]
Second: O=C1CCC(=O)N1Cc1cc2nccc(-c3cc(Cl)cc4c3N([C@H]3CNC5(CCC5)C3)CCC4)c2s1 (single isomer, unassigned) [Example 139a]
The IC50 of the first is lower: < 10 nM for the first, 10 to 100 nM for the second. The first is the more potent here.

First: O=C1CCC(=O)N1Cc1sc2c(-c3cc(Cl)cc4c3N(C3CCNC3)CCC4)ccnc2c1F (single isomer, unassigned) [Example 108b]
Second: O=C1CCC(=O)N1Cc1cc2nccc(-c3cc(Cl)cc4c3N([C@@H]3CNC5(CCC5)C3)CCC4)c2s1 (single isomer, unassigned) [Example 139b]
The IC50 of the first is higher: 10 to 100 nM for the first, < 10 nM for the second.

Compared with `O=C1CCC(=O)N1Cc1cc2nccc(-c3cccc4c3N([C@H]3CCNC3)CCO4)c2s1` (single isomer, unassigned) [Example 111a], `O=C1CCC(=O)N1Cc1cc2nccc(-c3cccc4c3N([C@@H]3CCNC3)CCO4)c2s1` (single isomer, unassigned) [Example 111b] is higher in IC50: 10 to 100 nM for the first, > 1000 nM for the second. The first is the more potent here.

First: C[C@H](c1cc2nccc(-c3cc(C#N)cc4c3N([C@H]3CCNC3)CCC4)c2s1)N1C(=O)CCC1=O (single isomer, unassigned) [Example 112a]
Second: C[C@@H](c1cc2nccc(-c3cc(C#N)cc4c3N([C@H]3CCNC3)CCC4)c2s1)N1C(=O)CCC1=O (single isomer, unassigned) [Example 112b]
The IC50 of the first is lower: 10 to 100 nM for the first, 101 to 1000 nM for the second.

First: C[C@H](c1cc2nccc(-c3cc(C#N)cc4c3N([C@@H]3CCNC3)CCC4)c2s1)N1C(=O)CCC1=O (single isomer, unassigned) [Example 112c]
Second: C[C@@H](c1cc2nccc(-c3cc(C#N)cc4c3N([C@@H]3CCNC3)CCC4)c2s1)N1C(=O)CCC1=O (single isomer, unassigned) [Example 112d]
The IC50 of the first is lower: 101 to 1000 nM for the first, > 1000 nM for the second. The first is the more potent here.

Compared with `O=C1CCC(=O)N1Cc1cc2nccc(-c3cc(Cl)cc4c3N([C@@H]3CCNC3)CC3CC43)c2s1` (single isomer, unassigned) [Example 113a], `O=C1CCC(=O)N1Cc1cc2nccc(-c3cc(Cl)cc4c3N(C3CCNC3)C[C@@H]3C[C@H]43)c2s1` (single isomer, unassigned) [Example 113c] is lower in IC50: 101 to 1000 nM for the first, 10 to 100 nM for the second. The second is the more potent here.

First: O=C1CCC(=O)N1Cc1cc2nccc(-c3cc(Cl)cc4c3N([C@@H]3CCNC3)CC3CC43)c2s1 (single isomer, unassigned) [Example 113b]
Second: O=C1CCC(=O)N1Cc1cc2nccc(-c3cc(Cl)cc4c3N([C@H]3CCNC3)C[C@H]3C[C@@H]43)c2s1 (single isomer, unassigned) [Example 113d]
The IC50 of the first is higher: 10 to 100 nM for the first, < 10 nM for the second. The second is the more potent here.

First: CC1(C)C[C@@H](N2CCCc3cc(Cl)cc(-c4ccnc5cc(Cn6c(=O)ccn(CC(F)(F)F)c6=O)sc45)c32)CN1 (single isomer, unassigned) [Example 118a]
Second: CC1(C)C[C@H](N2CCCc3cc(Cl)cc(-c4ccnc5cc(Cn6c(=O)ccn(CC(F)(F)F)c6=O)sc45)c32)CN1 (single isomer, unassigned) [Example 118b]
The IC50 of the first is higher: 10 to 100 nM for the first, < 10 nM for the second.

`Cc1cnn(Cc2cc3nccc(-c4cc(C#N)cc5c4N(C4CNC(C)(C)C4)CCC5)c3s2)c(=O)c1` (single isomer, unassigned) [Example 120a] and `Cc1cnn(Cc2cc3nccc(-c4cc(C#N)cc5c4N(C4CNC6(CCC6)C4)CCC5)c3s2)c(=O)c1` (single isomer, unassigned) [Example 164a] cannot be ordered by IC50: < 10 nM for the first, < 10 nM for the second.

`Cc1cnn(Cc2cc3nccc(-c4cc(C#N)cc5c4N(C4CNC(C)(C)C4)CCC5)c3s2)c(=O)c1` (single isomer, unassigned) [Example 120b] and `Cc1cnn(Cc2cc3nccc(-c4cc(C#N)cc5c4N(C4CNC6(CCC6)C4)CCC5)c3s2)c(=O)c1` (single isomer, unassigned) [Example 164b] fall in the same range of IC50: 101 to 1000 nM for the first, 101 to 1000 nM for the second.

First: CC1(C)CC(N2CCOc3cc(C#N)cc(-c4ccnc5cc(Cn6c(=O)ccn(CC(F)(F)F)c6=O)sc45)c32)CN1 (single isomer, unassigned) [Example 133a]
Second: Cc1ccnn(Cc2cc3nccc(-c4cc(C(F)(F)F)cc5c4N(C4CNC6(CCC6)C4)CCO5)c3s2)c1=O (single isomer, unassigned) [Example 176a]
The IC50 of the first is lower: < 10 nM for the first, 101 to 1000 nM for the second.

`CC1(C)CC(N2CCOc3cc(C#N)cc(-c4ccnc5cc(Cn6c(=O)ccn(CC(F)(F)F)c6=O)sc45)c32)CN1` (single isomer, unassigned) [Example 133b] and `O=C1CCC(=O)N1Cc1cc2nccc(-c3cc(C(F)(F)F)cc4c3N(C3CNC5(CCC5)C3)CCO4)c2s1` (single isomer, unassigned) [Example 175a] fall in the same range of IC50: 101 to 1000 nM for the first, 101 to 1000 nM for the second.

First: O=C1CCC(=O)N1Cc1cc2nccc(-c3cc(Cl)cc4c3N([C@@H]3CN(C[C@H](O)C(F)(F)F)C5(CCC5)C3)CCC4)c2s1 (single isomer, unassigned) [Example 143a]
Second: O=C1CCC(=O)N1Cc1cc2nccc(-c3cc(Cl)cc4c3N([C@@H]3CN(C[C@@H](O)C(F)(F)F)C5(CCC5)C3)CCC4)c2s1 (single isomer, unassigned) [Example 143b]
The IC50 of the first is lower: 10 to 100 nM for the first, 101 to 1000 nM for the second. The first is the more potent here.

First: O=C1CCC(=O)N1Cc1cc2ncnc(-c3cc(Cl)cc4c3N(C3CNC5(CCC5)C3)CCC4)c2s1 (single isomer, unassigned) [Example 161a]
Second: O=C1CCC(=O)N1Cc1cc2nccc(-c3cc(Cl)cc4c3N([C@@H]3CCC5(CCCN5)C3)CCC4)c2s1 (single isomer, unassigned) [Example 179a]
The IC50 of the first is lower: < 10 nM for the first, 10 to 100 nM for the second.

First: O=C1CCC(=O)N1Cc1cc2ncnc(-c3cc(Cl)cc4c3N(C3CNC5(CCC5)C3)CCC4)c2s1 (single isomer, unassigned) [Example 161b]
Second: O=C1CCC(=O)N1Cc1cc2nccc(-c3cc(Cl)cc4c3N([C@@H]3CC[C@@]5(CCCN5)C3)CCC4)c2s1 (single isomer, unassigned) [Example 179b]
The IC50 of the first is higher: 101 to 1000 nM for the first, 10 to 100 nM for the second.

`O=c1ccn(C2CC2)c(=O)n1Cc1cc2nccc(-c3cc(C(F)(F)F)cc4c3N(C3CNC5(CCC5)C3)CCC4)c2s1` (single isomer, unassigned) [Example 162a] and `O=C1CCC(=O)N1Cc1cc2nccc(-c3cc(C(F)(F)F)cc4c3N(C3CNC5(CCC5)C3)CCO4)c2s1` (single isomer, unassigned) [Example 175b] cannot be ordered by IC50: < 10 nM for the first, < 10 nM for the second.

`O=c1ccn(C2CC2)c(=O)n1Cc1cc2nccc(-c3cc(C(F)(F)F)cc4c3N(C3CNC5(CCC5)C3)CCC4)c2s1` (single isomer, unassigned) [Example 162b] and `O=C1CCC(=O)N1Cc1cc2nccc(-c3cc(Cl)cc4c3N(C3CNC5(CCC5)C3)CCO4)c2s1` (single isomer, unassigned) [Example 171a] fall in the same range of IC50: 101 to 1000 nM for the first, 101 to 1000 nM for the second.

Compared with `O=C1CCC(=O)N1Cc1cc2nccc(-c3cc(Cl)cc4c3N(C3CNC5(CCC5)C3)CCO4)c2s1` (single isomer, unassigned) [Example 171b], `O=C1CCC(=O)N1Cc1cc2nccc(-c3cc(Cl)cc4c3N(C3CNC5(CCC5)C3)C(=O)CO4)c2s1` (single isomer, unassigned) [Example 173a] is higher in IC50: < 10 nM for the first, 10 to 100 nM for the second. The first is the more potent here.

First: O=C1CCC(=O)N1Cc1cc2nccc(-c3cc(Cl)cc4c3N(C3CNC5(CCC5)C3)C(=O)CO4)c2s1 (single isomer, unassigned) [Example 173b]
Second: O=C1CCC(=O)N1Cc1cc2nccc(-c3cc(Cl)cc4c3N([C@@H]3CNC(CO)(CO)C3)CCC4)c2s1 (single isomer, unassigned) [Example 181a]
The IC50 of the first is higher: 101 to 1000 nM for the first, < 10 nM for the second. The second is the more potent here.

First: O=C1CCC(=O)N1Cc1cc2nccc(-c3cc(Cl)cc4c3N([C@H]3CNC(CO)(CO)C3)CCC4)c2s1 (single isomer, unassigned) [Example 181b]
Second: CC1(c2cnn(Cc3cc4nccc(-c5cc(C#N)cc6c5N([C@@H]5CN[C@@H](CO)C5)C[C@H]5C[C@@H]65)c4s3)c(=O)c2)CC1 (single isomer, unassigned) [Example 195a]
The IC50 of the first is higher: 10 to 100 nM for the first, < 10 nM for the second. The second is the more potent here.

`CC(C)(C)c1cnn(Cc2cc3nccc(-c4cc(C#N)cc5c4N([C@@H]4CN[C@@H](CO)C4)C[C@H]4C[C@@H]54)c3s2)c(=O)c1` (single isomer, unassigned) [Example 192a] and `CC(C)(C)c1cnn(Cc2cc3nccc(-c4cc(C#N)cc5c4N([C@@H]4CN[C@@H](CO)C4)C[C@@H]4C[C@H]54)c3s2)c(=O)c1` (single isomer, unassigned) [Example 192b] cannot be ordered by IC50: < 10 nM for the first, < 10 nM for the second.

Compared with `CC(C)(C)c1cnn(Cc2cc3nccc(-c4cc(C#N)cc5c4N([C@H]4CN[C@@H](CO)C4)C[C@@H]4C[C@H]54)c3s2)c(=O)c1` (single isomer, unassigned) [Example 193a], `CC(C)(C)c1cnn(Cc2cc3nccc(-c4cc(C#N)cc5c4N([C@H]4CN[C@@H](CO)C4)C[C@H]4C[C@@H]54)c3s2)c(=O)c1` (single isomer, unassigned) [Example 193b] is lower in IC50: > 1000 nM for the first, 10 to 100 nM for the second. The second is the more potent here.
